Source: patent US20240398752A1 (AJOU UNIVERSITY INDUSTRY-ACADEMIC COOPERATION FOUNDATION, priority 2021, published 2024)

How the values were obtained:
[1] = Description: In the experiment, the concentration of tofacitinib was set at 5, 10, 20, 50, 100, 200, and 500 μM, 1 mg of microsomes and nicotinamide adenine dinucleotide phosphate hydrogen-generating system (Corning Inc., Corning, NY, USA) were blended, and the total volume was adjusted to 1 mL with 0.1 M potassium phosphate buffer (pH 7.4), followed by incubation for 15 minutes at a rate of 50 oscillations per minutes in a water-bath (37° C.). The concentration (Km) of tofacitinib when Vmax, the maximum rate of drug metabolism (Vmax), was halved was measured by the Lineweaver-Burk plot. The intrinsic clearance (CLint) of the drug was calculated by dividing Vmax by Km.
in vivo = conditions: for clearance: CL; for CL renal: CLR; for half-life: Terminal half-life; for Vd: Vss; for Ae0-24 h: urine 24 hours; for reduction in AUC in the LC-ISN group compared to the LC group: isosakuranetin 15 mg/kg
Description: Blood collection was performed at 0, 1, 5, 15, 30, 45, 60, 90, 120, 180, 240, 360, 480, 600, and 720 minutes for intravenous administration of tofacitinib, and at 0, 5, 15, 30, 45, 60, 90, 120, 180, 240, 360, 480, 600, and 720 minutes for oral administration to quantify concentrations of tofacitinib in the plasma. Then, urine was collected for 24 hours to analyze the concentration of tofacitinib excreted in urine as well.

[2] = rat, in vivo, iv, 10 mg/kg, tofacitinib 10 mg/kg intravenous, CON rats
[3] = rat, in vivo, iv, 10 mg/kg, tofacitinib 10 mg/kg intravenous, LC rats
[4] = rat, in vivo, iv, 10 mg/kg, tofacitinib 10 mg/kg intravenous, LC-ISN rats
[5] = rat, in vivo, po, 20 mg/kg, tofacitinib 20 mg/kg oral, CON rats
[6] = rat, in vivo, po, 20 mg/kg, tofacitinib 20 mg/kg oral, LC-ISN 15 rats
[7] = rat, in vivo, po, 20 mg/kg, tofacitinib 20 mg/kg oral, LC rats
[8] = tofacitinib 10 mg/kg intravenous
[9] = tofacitinib 10 mg/kg intravenous, CON rats
[10] = tofacitinib 10 mg/kg intravenous, LC rats
[11] = tofacitinib 10 mg/kg intravenous, LC-ISN rats
[12] = tofacitinib 20 mg/kg oral, CON rats
[13] = tofacitinib 20 mg/kg oral, LC rats
[14] = tofacitinib 20 mg/kg oral, LC-ISN 15 rats

SMILES: C[C@@H]1CCN(C(=O)CC#N)C[C@@H]1N(C)c1ncnc2[nH]ccc12 [tofacitinib]
- Km in the three groups (CON, LC, LC-ISN) ([1]; hepatic microsome): No significant difference
- decrease of Vmax in the LC group compared to the CON group ([1]; hepatic microsome): 63.4%
- increase of Vmax in the LC-ISN group compared to the LC group ([1]; hepatic microsome): 204%
- CLint of the LC-ISN group recovered to % of the CON group ([1]; hepatic microsomes): 92.2%
- decrease of CLint in the LC group compared to the CON group ([1]; hepatic microsomes): 64.9%
- increase of CLint in the LC-ISN group compared to the LC group ([1]; hepatic microsomes): 163%
- CLint in the LC group compared to the CON group and the LC-ISN group ([1]; small intestinal microsome): no statistically significant difference
- AUC (in vivo; rat, in vivo, iv, 10 mg/kg, AUC, tofacitinib 10 mg/kg intravenous, CON rats): 7330 ng·h/mL
- AUC (in vivo; rat, in vivo, iv, 10 mg/kg, AUC, tofacitinib 10 mg/kg intravenous, LC rats): 18900 ng·h/mL
- clearance (in vivo; [2]): 24.1 ± 6.27 mL/min/kg
- clearance (in vivo; [3]): 11 ± 2.06 mL/min/kg
- clearance (in vivo; [4]): 13.8 ± 1.73 mL/min/kg
- CL renal (in vivo; [2]): 3.73 ± 1.09 mL/min/kg
- CL renal (in vivo; [3]): 4.65 ± 2.74 mL/min/kg
- CL renal (in vivo; [4]): 4.1 ± 1.64 mL/min/kg
- half-life (in vivo; rat, in vivo, iv, 10 mg/kg, tofacitinib 10 mg/kg intravenous, CON (control) rats): 35.4 ± 19.2 min
- half-life (in vivo; rat, in vivo, iv, 10 mg/kg, tofacitinib 10 mg/kg intravenous, LC rats (liver cirrhosis induced by DMN)): 113 ± 43.7 min
- Vd (in vivo; [2]): 0.429 ± 0.253 L/kg
- Vd (in vivo; [3]): 0.798 ± 0.177 L/kg
- Vd (in vivo; [4]): 0.8 ± 0.326 L/kg
- AUC (in vivo; rat, in vivo, po, 20 mg/kg, AUC, tofacitinib 20 mg/kg oral, CON rats): 6400 ng·h/mL
- AUC (in vivo; rat, in vivo, po, 20 mg/kg, AUC, tofacitinib 20 mg/kg oral, LC rats): 33800 ng·h/mL
- AUC (in vivo; rat, in vivo, po, 20 mg/kg, AUC, tofacitinib 20 mg/kg oral, LC-ISN 15 rats): 20700 ng·h/mL
- CL renal (in vivo; [5]): 6.98 ± 2.99 mL/min/kg
- CL renal (in vivo; [6]): 5.71 ± 2.47 mL/min/kg
- Cmax (in vivo; [5]): 3530 ± 1460 ng/mL
- Cmax (in vivo; [7]): 9100 ± 1260 ng/mL
- Cmax (in vivo; [6]): 6080 ± 1990 ng/mL
- Tmax (in vivo; [5]): 50 min
- Tmax (in vivo; [7]): 55.7 min
- Tmax (in vivo; [6]): 85.7 min
- increase of AUC in the LC group compared to the CON group (in vivo; [8]): 158%
- reduction in nonrenal clearance (CLNR) in the LC group compared to the CON group (in vivo; [8]): 69.9%
- reduction in total body clearance (CL) in the LC group compared to the CON group (in vivo; [8]): 54.4%
- CLNR (in vivo; [9]): 21.1 ± 4.57 mL/min/kg
- GI24 h (in vivo; [9]): 0.164 ± 0.102 % of dose
- Ae0-24 h (in vivo; [9]): 13.9 ± 2.28 % of dose
- CLNR (in vivo; [10]): 6.35 ± 1.27 mL/min/kg
- GI24 h (in vivo; [10]): 2.07 ± 2.12 % of dose
- Ae0-24 h (in vivo; [10]): 40.2 ± 18.9 % of dose
- AUC (in vivo; [11]): 12300 ± 1780 ng·h/mL
- CLNR (in vivo; [11]): 9.68 ± 2.40 mL/min/kg
- GI24 h (in vivo; [11]): 0.166 ± 0.135 % of dose
- Terminal half-life (in vivo; tofacitinib 10 mg/kg intravenous, LC-ISN rats (LC treated with isosakuranetin 15 mg/kg)): 58.2 ± 16.8 min
- Ae0-24 h (in vivo; [11]): 30.1 ± 12.3 % of dose
- reduction in AUC in the LC-ISN group compared to the LC group (in vivo; [8]): 35.1%
- increase of AUC in the LC group compared to the CON group (in vivo; tofacitinib 20 mg/kg oral): 429%
- F (in vivo; [12]): 43.6%
- GI24 h (in vivo; [12]): 0.106 ± 0.101 % of dose
- Ae0-24 h (in vivo; [12]): 11.8 ± 4.08 % of dose
- CLR (in vivo; [13]): 3.62 ± 1.78 mL/min/kg
- F (in vivo; [13]): 89.5%
- GI24 h (in vivo; [13]): 1.73 ± 2.04 % of dose
- Ae0-24 h (in vivo; [13]): 35.8 ± 16.9 % of dose
- F (in vivo; [14]): 84.1%
- GI24 h (in vivo; [14]): 0.340 ± 0.288 % of dose
- Ae0-24 h (in vivo; [14]): 35.9 ± 16.8 % of dose
- reduction in AUC in the LC-ISN group compared to the LC group (in vivo; tofacitinib 20 mg/kg oral): 38.9%
